Data: ChEMBL document CHEMBL2074570, “The farnesyl protein transferase inhibitor SCH66336 is a potent inhibitor of MDR1 product P-glycoprotein” (Cancer Res, 2001)
pIC50: −log10 of the molar value.

Molecular target: ATP-dependent translocase ABCB1 (Homo sapiens, UniProt P08183)
Assay: TP_TRANSPORTER: inhibition of DNR efflux (DNR: ? uM) in MDR1-expressing NIH3T3 cells
Assay type: functional, cell-based

ATP-dependent translocase ABCB1, sequence (P08183 whole entry): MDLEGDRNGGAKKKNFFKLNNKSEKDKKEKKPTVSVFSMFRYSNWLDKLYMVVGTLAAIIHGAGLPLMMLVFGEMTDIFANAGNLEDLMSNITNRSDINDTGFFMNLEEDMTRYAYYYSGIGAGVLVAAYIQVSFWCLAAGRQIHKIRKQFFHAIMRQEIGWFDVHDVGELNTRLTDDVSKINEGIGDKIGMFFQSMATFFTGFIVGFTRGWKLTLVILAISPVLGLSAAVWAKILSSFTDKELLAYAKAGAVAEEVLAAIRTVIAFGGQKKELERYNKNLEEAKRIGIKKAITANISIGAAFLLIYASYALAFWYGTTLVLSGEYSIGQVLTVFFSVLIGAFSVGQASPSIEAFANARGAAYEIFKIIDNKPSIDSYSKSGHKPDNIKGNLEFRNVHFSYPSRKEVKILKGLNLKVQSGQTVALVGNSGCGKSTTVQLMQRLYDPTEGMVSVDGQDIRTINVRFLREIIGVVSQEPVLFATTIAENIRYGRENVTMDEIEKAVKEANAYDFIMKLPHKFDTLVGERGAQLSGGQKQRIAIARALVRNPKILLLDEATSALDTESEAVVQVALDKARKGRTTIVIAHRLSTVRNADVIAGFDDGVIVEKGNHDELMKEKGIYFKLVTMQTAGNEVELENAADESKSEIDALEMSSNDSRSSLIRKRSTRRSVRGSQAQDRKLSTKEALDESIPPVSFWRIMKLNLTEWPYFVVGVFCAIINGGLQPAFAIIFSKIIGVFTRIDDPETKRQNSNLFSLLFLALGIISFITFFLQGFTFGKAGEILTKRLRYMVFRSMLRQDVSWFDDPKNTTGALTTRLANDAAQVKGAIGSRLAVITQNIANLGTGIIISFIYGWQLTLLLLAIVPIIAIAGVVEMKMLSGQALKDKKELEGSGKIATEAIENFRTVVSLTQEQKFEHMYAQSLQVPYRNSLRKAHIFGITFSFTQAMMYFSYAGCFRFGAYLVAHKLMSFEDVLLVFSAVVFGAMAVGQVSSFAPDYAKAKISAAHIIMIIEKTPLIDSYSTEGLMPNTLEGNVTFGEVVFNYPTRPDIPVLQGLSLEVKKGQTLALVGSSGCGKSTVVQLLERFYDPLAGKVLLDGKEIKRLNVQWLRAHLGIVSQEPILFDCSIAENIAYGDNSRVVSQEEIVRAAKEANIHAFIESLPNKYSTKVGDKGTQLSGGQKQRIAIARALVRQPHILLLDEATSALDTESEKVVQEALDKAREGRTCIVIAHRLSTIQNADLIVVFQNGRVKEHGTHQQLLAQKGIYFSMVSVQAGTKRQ

## NC(=O)N1CCC(CC(=O)N2CCC([C@H]3c4ncc(Br)cc4CCc4cc(Cl)cc(Br)c43)CC2)CC1 [LONAFARNIB]
  pIC50: 5.57
